Laboratory results published in PubChem BioAssay (NCI).
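Test compounds were applied to cells in 96-well plates for 48 hours at 5 doses. GI50 is the concentration that inhibits growth by half. TGI is the concentration that stops growth completely.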

Legend:
Assay in all cases: NCI-60 cell line screen, 48 h
786-0 renal = tested on: 786-0 renal
EKVX NSCLC = tested on: EKVX NSCLC
HOP-62 NSCLC = tested on: HOP-62 NSCLC
LOX IMVI melanoma = tested on: LOX IMVI melanoma
MOLT-4 leukemia = tested on: MOLT-4 leukemia
OVCAR-4 ovarian = tested on: OVCAR-4 ovarian
UO-31 renal = tested on: UO-31 renal
MDA-MB-231 breast = tested on: MDA-MB-231 breast
NCI-H460 lung = tested on: NCI-H460 lung
SK-MEL-2 melanoma = tested on: SK-MEL-2 melanoma

Structure (SMILES)	TGI (786-0 renal) [µM]	TGI (EKVX NSCLC) [µM]	TGI (HOP-62 NSCLC) [µM]	TGI (LOX IMVI melanoma) [µM]	TGI (MOLT-4 leukemia) [µM]	TGI (OVCAR-4 ovarian) [µM]	TGI (UO-31 renal) [µM]	GI50 (786-0 renal) [µM]	GI50 (HOP-62 NSCLC) [µM]	GI50 (LOX IMVI melanoma) [µM]	GI50 (MDA-MB-231 breast) [µM]	TGI (MDA-MB-231 breast) [µM]	GI50 (MOLT-4 leukemia) [µM]	GI50 (NCI-H460 lung) [µM]	TGI (NCI-H460 lung) [µM]	GI50 (OVCAR-4 ovarian) [µM]	GI50 (SK-MEL-2 melanoma) [µM]	TGI (SK-MEL-2 melanoma) [µM]	GI50 (UO-31 renal) [µM]	GI50 (EKVX NSCLC) [µM]
C#Cc1c(C)c(/C=C/C(C)=C/C(=O)OC)n(C)c1C	> 100	> 100	> 100	> 100	> 100	> 100	> 100	–	–	–	–	–	–	–	–	–	–	–	–	–
C#Cc1nc2ccccc2c(=O)[nH]1	2.12	–	5.64	0.315	0.994	2.79	1.61	0.582	1.95	0.168	0.318	1.49	0.316	1.79	7.66	1.38	2.15	6.19	0.383	–
c1ccc2c(c1)oc1ccc3nsnc3c12	> 100	> 100	–	> 10	> 100	> 100	> 100	–	–	–	–	–	–	–	> 10	–	–	> 100	–	–
OCc1ccc(-c2cscc2-c2ccc(CO)o2)o1	> 100	–	37.6	> 100	> 100	49.4	> 100	> 33.8	3.55	> 100	> 100	> 100	> 100	1.34	5.92	4.79	22.5	> 100	56.1	–
O=S(=O)(NCn1ccc2ccccc21)c1ccccc1	> 100	> 100	> 100	> 100	> 100	–	> 100	–	–	–	–	–	–	–	> 100	–	–	> 100	–	–
O=c1[nH]c2nc(NC3CCOCC3)ncc2cc1Oc1ccc(F)cc1F	> 25	–	> 25	> 25	> 25	> 25	> 25	> 25	> 25	> 25	> 25	> 25	> 25	> 25	> 25	> 25	> 25	> 25	> 25	–
NCCOCCOCCNc1nc(-c2ccc(Cl)cc2)nc(N2CCN(c3ccccn3)CC2)n1	3.61	–	–	–	3.85	10.5	5.02	1.83	–	–	2.55	6.01	1.99	–	–	2.78	–	–	2.07	–
COc1cc(NC(=O)CCSc2nc3ccc(C)cc3c(=O)n2Cc2ccccc2)cc(OC)c1OC	19.2	–	9.47	> 100	> 100	> 100	> 100	4.17	2.94	6.4	4.2	52.8	> 100	5.31	> 100	3.95	4.4	27.5	11.6	–
O=C1C=CC(=O)c2c(O)c(NCCOCCO)c(Cl)c(O)c21	17.2	–	34.2	16.7	27.4	5.91	29.7	–	–	–	–	–	–	–	13.6	–	–	21.7	–	–
CC(=O)[O-].[Mn+3].[O-]c1ccccc1C=NCCNCCN=Cc1ccccc1[O-]	> 100	–	–	> 100	> 100	> 100	> 100	> 100	–	> 100	–	–	> 100	> 100	> 100	> 100	> 100	> 100	> 100	–
CSCCCNC(=O)c1ccc2c(c1)/C(=C/c1[nH]c(C)cc1C)C(=O)N2	> 100	–	> 100	> 100	> 100	–	> 100	1.93	0.286	1.02	2.87	> 100	1.7	0.872	> 100	–	0.356	4.42	0.347	–
Cc1cc(N=C2C=C(Br)C(=O)C(Br)=C2)cc(CN(CC(=O)O)CC(=O)O)c1O	> 100	> 100	> 100	–	> 100	> 100	> 100	–	–	–	–	> 100	–	–	> 100	–	–	> 100	–	–
C=CCC1=C(C)C[C@@H]2CCC(=O)C=C12	> 100	> 100	> 100	> 100	> 100	> 100	> 100	–	–	–	–	–	–	–	> 100	–	–	> 100	–	–
Cc1cccc(C)c1NC(=O)CCc1nc(=S)[nH][nH]1	> 100	> 100	> 100	> 100	> 100	> 100	> 100	–	–	–	–	–	–	–	> 100	–	–	> 100	–	–
CC(=O)O[C@]1(C)OC(=O)[C@@H](CC(C)C)N1[N+](=O)[O-]	> 100	> 100	> 100	> 100	> 100	> 100	> 100	–	–	–	–	–	–	–	> 100	–	–	> 100	–	–
CC(=O)OCC(=O)[C@@]12OC(C)(C)O[C@@H]1C[C@H]1[C@@H]3CC(C=O)=C4C=C(OCCCl)CC[C@]4(C)[C@@]3(F)[C@@H](O)C[C@@]12C	> 100	> 100	51.9	> 100	> 100	> 100	> 100	–	–	–	–	–	–	–	88.4	–	–	58.6	–	–
COc1cc2c(cc1OC)C(=O)/C(=C/c1cc(-c3ccc4c(c3)OCO4)n[nH]1)C2	2.99	–	2.96	–	6.97	2.36	2.67	1.61	1.53	–	1.66	3.2	2.57	1.68	3.79	1.11	–	–	1.29	–
CCCC(=O)N[C@H]1C2C3CC4C5CC(C42)C1(C)C53 (some centres undefined)	> 100	> 100	> 100	> 100	> 100	> 100	> 100	–	–	–	–	–	–	–	> 100	–	–	> 100	–	–
O=c1ncccn1C1OC(CO)C(O)C1O (centres undefined)	> 100	> 100	–	> 100	–	> 100	> 100	–	–	–	–	–	–	–	> 100	–	–	> 100	–	–
COc1ccc(CCn2c(=O)c3ccccc3n(C)c2=O)cc1	> 100	> 100	> 100	–	> 100	> 100	> 100	–	–	–	–	–	–	–	> 100	–	–	85.6	–	–

Structure (SMILES)	TGI (786-0 renal) [µM]	TGI (EKVX NSCLC) [µM]	TGI (HOP-62 NSCLC) [µM]	TGI (LOX IMVI melanoma) [µM]	TGI (MOLT-4 leukemia) [µM]	TGI (OVCAR-4 ovarian) [µM]	TGI (UO-31 renal) [µM]	GI50 (786-0 renal) [µM]	GI50 (HOP-62 NSCLC) [µM]	GI50 (LOX IMVI melanoma) [µM]	GI50 (MDA-MB-231 breast) [µM]	TGI (MDA-MB-231 breast) [µM]	GI50 (MOLT-4 leukemia) [µM]	GI50 (NCI-H460 lung) [µM]	TGI (NCI-H460 lung) [µM]	GI50 (OVCAR-4 ovarian) [µM]	GI50 (SK-MEL-2 melanoma) [µM]	TGI (SK-MEL-2 melanoma) [µM]	GI50 (UO-31 renal) [µM]	GI50 (EKVX NSCLC) [µM]
O=C(O)CCNCCCCNCCC(=O)O	> 100	> 100	> 100	> 100	> 100	> 100	–	–	–	–	–	–	–	–	> 100	–	–	> 100	–	–
N.N.N.N.N.O=[N+]([O-])[O-].[Co+3].[O-][Cl+3]([O-])([O-])[O-]	> 100	> 100	> 100	> 100	> 100	> 100	> 100	> 100	> 100	> 100	–	–	> 100	> 100	> 100	> 100	> 100	> 100	> 100	> 100
COC(=O)CC(NC(=O)OCc1ccccc1)C(C(=O)OCc1ccccc1)C(C)(OC)OC (centres undefined)	> 100	> 100	> 100	52.7	33	> 100	68.7	–	–	–	–	–	–	–	80.2	–	–	36.5	–	–
CCOC(=O)N1CCc2cc(OC)c(OC)cc2/C1=C\c1ccc(OC)c(OC)c1	52.1	89.2	> 100	40.3	91.1	–	69.5	–	–	–	–	–	–	–	–	–	–	67.6	–	–
CCOC(=O)CCn1ncc(Cl)c(Cl)c1=O	34.7	36	39.8	25.7	11.7	2.9	29.3	–	–	–	–	–	–	–	30.3	–	–	26.4	–	–
CC1CCSC(N(C(=O)N(C)c2ccccc2)c2ccccc2)=N1 (centres undefined)	> 100	> 100	> 100	> 100	> 100	–	> 100	–	–	–	–	–	–	–	> 100	–	–	> 100	–	–
Cc1c(NC(=S)NC(=O)c2ccc([N+](=O)[O-])cc2)c(=O)n(-c2ccccc2)n1C	> 100	> 100	> 100	> 100	> 100	> 100	> 100	–	–	–	–	–	–	–	> 100	–	–	> 100	–	–
c1ccc2c(-c3nc(-c4c[nH]c5ccncc45)cs3)c[nH]c2c1	3.44	4.61	4.27	–	–	11.7	2.62	1.89	1.71	–	1.06	2.53	–	1.76	3.58	2.96	2.09	3.95	1.21	1.78
COc1ccc(/C(Cl)=C/c2cc(OC)ccc2OC)cc1	> 100	> 100	> 100	–	> 100	> 100	> 100	–	–	–	–	–	–	–	–	–	–	–	–	–
O=c1cc(N/N=C/c2ccc(F)cc2)c2cc(Cl)ccc2[nH]1	> 100	> 100	> 100	> 100	> 100	–	> 100	26.3	20.7	25.3	16	51.7	4.07	20.3	> 100	–	18.3	69.3	21.9	16.8
NNC(=O)C(=O)N/N=C1\CCC(=O)CC1C(=O)CCC(=O)Nc1ccc(Cl)cc1 (centres undefined)	> 100	> 100	–	> 100	> 100	> 100	> 100	–	–	–	–	–	–	–	> 100	–	–	> 100	–	–
COc1ccc(-c2nc(-c3nc4ccc(F)cc4[nH]3)c3ccccn23)cc1	61.5	–	32.3	> 100	> 100	> 100	56.2	8.82	7.41	10.8	4.34	30.4	3.83	6.83	> 100	6.92	10.1	54.8	6.99	–
Cc1cc(N(CCC#N)CCC#N)ccc1N=Nc1ccc(Br)cc1	38.3	> 74.4	20.9	> 47.1	> 58.8	> 100	> 57.6	–	–	–	–	–	–	–	> 100	–	–	48.9	–	–
CC(C)CCCC(C)[C@H]1CCC2[C@@H]3CCC4Nc5c(cnn5-c5ccccc5)C[C@]4(C)C3CC[C@@]21C (some centres undefined)	> 100	79.8	45.7	–	> 100	80.1	50.4	–	–	–	–	–	–	–	> 100	–	–	> 100	–	–
Cc1ccc(S(=O)(=O)c2ccccc2[N+](=O)[O-])cc1	> 100	> 100	> 100	–	> 100	> 100	> 100	–	–	–	–	–	–	–	> 100	–	–	> 100	–	–
COc1ccc(CCc2cc(OC)cc(OC)c2)cc1	> 100	> 100	> 100	> 100	56.5	> 100	> 100	–	–	–	–	–	–	–	> 100	–	–	> 62	–	–
CC(C)(C)C(=CS(=O)/N=C/c1ccccc1)C(C)(C)C (centres undefined)	> 100	> 100	> 100	35.4	54.3	70.9	95.7	–	–	–	–	–	–	–	73.2	–	–	34.4	–	–
C[Si](C)(C)/C=C\CCO	> 100	> 100	–	> 100	> 100	–	> 100	–	–	–	–	–	–	–	> 100	–	–	> 100	–	–
O=C(Nc1ccc(-c2nc(-c3cccc(OCCN4CCOCC4)c3)c(-c3ccnc(Br)c3)[nH]2)cc1)c1ccccc1	2.39	6.97	–	–	> 100	–	5.58	0.741	–	–	2.84	> 100	0.784	2.81	9.3	–	2.75	> 100	2	2.01
